From article PMC6171423, “Benzofuran–appended 4-aminoquinazoline hybrids as epidermal growth factor receptor tyrosine kinase inhibitors: synthesis, biological evaluation and molecular docking studies” (Journal of Enzyme Inhibition and Medicinal Chemistry, 2018)
Where two headings read alike, the source gives them in different places.

Legend:
[1] = system: hepatocellular carcinoma (C3A; HepG2/C3A) cells; settings: human, 48 h
Description: (§5) The cytotoxic activities of the compounds were screened against the C3A/HepG2 human liver cells, human colorectal tumor (Caco-2) cells, the human lung carcinoma (A549) and the cervical cancer (HeLa) cells. The lethal concentration was determined using the 3–(4,5-dimethylthiazol)-2,5-diphenyl tetrazolium bromide (MTT) assay previously developed by Mosmann[20]. The cells were maintained in Dubelsco minimal essential medium (DMEM, Highveld Biological, South Africa) supplemented with 10% fetal calf serum (Adcock-Ingram, Midrand, South Africa) and sodium pyruvate for C3A liver cells. Cell suspensions were prepared from confluent monolayer cultures and plated at a density of 0.1 × 10^6 cells into each well of 96-well microtitre plates. For cell attachment, plates were incubated for 24 h at 37 °C in a 5% CO2 incubator prior to the exposure. The compounds were dissolved in DMSO (5 mg/mL) and appropriate dilutions were prepared, added to the wells and incubated for 48 h. Doxorubicin hydrochloride (Pfizer Laboratories, Sandton, South Africa) was used as a positive control while DMSO was the negative control. After incubation for 48 h, the wells were rinsed with 150 µL of phosphate buffered saline PBS (Sigma-Aldrich, GmBH, Schnelldorf, Germany) and 200 µL of fresh medium was dispensed into the wells. MTT was dissolved in PBS (30 µL) then added to each well and the contents were incubated for 4 h at 37 °C. The medium was removed and MTT formazan crystals were dissolved in 50 µL DMSO. The amount of MTT reduction was measured immediately by detecting the absorbance using a BioTek microplate reader (BioTek Synergy, Analytical and Diagnostic Products, Johannesburg, South Africa) at a wavelength of 570 nm. Each dilution of the test sample was assayed in quadruplicate and the experiments were repeated three times. The percentage of cell viability and the LC50 values for each compound tested were calculated as described before[10].

[2] = system: hepatocellular carcinoma (C3A; HepG2/C3A) cells; experiment: cells; settings: Homo sapiens, 48 h
Description: as §5

[3] = system: cervical cancer (HeLa) cells; experiment: cells; settings: Homo sapiens, 48 h, read-out: Cancer cells LC50 HeLa
Description: as §5

[4] = system: human lung cancer (A549) cells; experiment: cells; settings: A549, 48 h, read-out: Cancer cells LC50 A549
Description: as §5

[5] = system: colorectal adenocarcinoma (Caco-2) cells; experiment: cells; settings: Homo sapiens, Caco-2, 48 h, read-out: Cancer cells LC50 Caco-2
Description: as §5

[6] = molecular target: human EGFR (EGFR-TK) (Homo sapiens, UniProt P00533); experiment: Inhibition of EGFR-TK (ELISA)
human EGFR (EGFR-TK), sequence (P00533 25-1210): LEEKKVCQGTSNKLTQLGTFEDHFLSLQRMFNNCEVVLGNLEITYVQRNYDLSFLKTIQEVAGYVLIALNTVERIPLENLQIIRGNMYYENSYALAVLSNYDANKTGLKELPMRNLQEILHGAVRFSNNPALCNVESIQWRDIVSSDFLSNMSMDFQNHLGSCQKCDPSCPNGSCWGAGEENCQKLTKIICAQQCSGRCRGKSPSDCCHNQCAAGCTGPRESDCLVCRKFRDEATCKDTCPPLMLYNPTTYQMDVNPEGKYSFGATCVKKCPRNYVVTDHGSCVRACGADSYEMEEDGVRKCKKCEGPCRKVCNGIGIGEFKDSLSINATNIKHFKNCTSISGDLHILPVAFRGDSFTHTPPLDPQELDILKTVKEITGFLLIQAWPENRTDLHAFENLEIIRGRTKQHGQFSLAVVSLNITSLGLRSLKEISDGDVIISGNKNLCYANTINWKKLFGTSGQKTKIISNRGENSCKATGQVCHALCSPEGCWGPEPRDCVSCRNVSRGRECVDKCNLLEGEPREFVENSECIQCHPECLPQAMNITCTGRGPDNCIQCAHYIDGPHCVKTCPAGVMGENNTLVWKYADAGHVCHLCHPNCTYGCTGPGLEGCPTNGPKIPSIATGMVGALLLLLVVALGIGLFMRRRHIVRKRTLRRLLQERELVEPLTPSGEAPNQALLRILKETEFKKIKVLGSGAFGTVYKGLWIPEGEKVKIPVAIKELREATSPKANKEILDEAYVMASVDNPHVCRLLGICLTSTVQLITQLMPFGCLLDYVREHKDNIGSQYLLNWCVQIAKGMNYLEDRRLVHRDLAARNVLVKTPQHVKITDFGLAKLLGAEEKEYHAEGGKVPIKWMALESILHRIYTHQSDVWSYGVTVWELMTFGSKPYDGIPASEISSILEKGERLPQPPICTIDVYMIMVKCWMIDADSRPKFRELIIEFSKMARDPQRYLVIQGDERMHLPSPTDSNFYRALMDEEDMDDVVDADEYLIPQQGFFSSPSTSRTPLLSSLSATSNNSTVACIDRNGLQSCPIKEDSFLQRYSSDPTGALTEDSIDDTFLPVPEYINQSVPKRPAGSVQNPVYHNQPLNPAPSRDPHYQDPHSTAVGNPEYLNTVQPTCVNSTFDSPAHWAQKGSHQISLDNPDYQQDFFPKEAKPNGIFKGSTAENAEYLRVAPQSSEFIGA

[7] = system: C3A cells; experiment: Annexin V/PI apoptosis assay by flow cytometry, C3A; assay type: cell-based, human; settings: 5 and 12.5 µM, 24 h
Description: (§1) Apoptotic cells were quantified using flow cytometry. The C3A or Caco-2 cells were cultured in 24 well plates and each was then treated with compound 10d or 10j at concentrations 5, 12.5 and 25 µM against doxorubicin hydrochloride (0.20 µM) as a reference standard, respectively. After the cells were incubated for 24 h, both treated and untreated cells were harvested, washed two times with ice PBS and then adjusted at a density of 1 x 10^6 cells/sample. Cells were harvested and transferred into plastic flow tubes (BD Biosciences, South Africa). The cells were, in turn, stained with Annexin-V-FUOS staining kit (Roche, Mannheim, Germany) according to the manufacturer’s instructions. The cells were analyzed using Becton, Dickinson and Company FACS Accuri flow cytometer.
(§2) We selected compounds 10d and 10j to evaluate whether they induce apoptosis in the C3A and Caco-2 cell lines against doxorubicin hydrochloride as a reference standard, respectively. The population of apoptotic cells was determined by means of Annexin-V and propium iodide (PI) double staining by flow cytometry, which is a useful tool for evaluation of molecular and morphological events that take place during cell death and cell proliferation. […]

[8] = system: Human Caspase-3 (Asp175) activity in C3A cells; experiment: Caspase-3 colorimetric assay, C3A; assay type: cell-based; settings: 24 h, Gefitinib as reference
Description: (§3) Caspase-3 activity was detected by means of Caspase-3 Colorimetric Assay Kit (Abcam, Cambridge, MA, USA). The cells were cultured in 24 well plates and treated for 24 h. The cells were then washed with PBS buffer and lysed on ice. The experiments were carried out according to the manufacturer’s instructions. Optical density was measured at absorbance of 450 nm using the BioTek microplate reader. The concentration of active Caspase-3 (Asp 175) were measured in duplicates and interpolated from the active caspase-3 (Asp 175) standard curve and corrected for sample dilution.
(§4) A major biochemical feature of apoptosis is the activation of caspases (caspase-2, -3, -6, -7, -8, -9, and -10), which play a central role in the morphological changes associated with apoptosis. Activation of caspase-3, for example, is critically important for the induction of apoptotic pathways. Consequently, we evaluated compounds 10d and 10j for potential to induce caspase-3 activation in C3A and Caco-2 cells using Gefitinib as a reference standard (Figure 4).

[9] = system: Caco-2 cells; experiment: Annexin V/PI apoptosis assay by flow cytometry, Caco-2; assay type: cell-based, human; settings: 5 and 12.5 µM, 24 h
Description: as §1, §2

[10] = system: Human Caspase-3 (Asp175) activity in Caco-2 cells; experiment: Caspase-3 colorimetric assay, Caco-2; assay type: cell-based; settings: 24 h, Gefitinib as reference
Description: as §3, §4

[11] = read-out: Cancer cells LC50 C3A
[12] = read-out: IC50 against EGFR-TK, ELISA, purified EGFR

Molecule `COc1cc2ncnc(Nc3ccc(F)c(Cl)c3)c2cc1OCCCN1CCOCC1` [Gefitinib, reference compound] has a CC50 [1] of 5 ± 0.04 µM, a CC50 ([2]; read-out: Cancer cells LC50 C3A, MTT, 48 h, C3A) of 5.01 µM and a CC50 [3] of 98.8 ± 0.56 µM. The CC50 [4] was 51.3 ± 0.17 µM.

`Clc1ccc(-c2nc(Nc3cc(Br)cc4cc(-c5ccccc5)oc34)c3cc(Br)ccc3n2)cc1` [Compound 10f, 6-Bromo-N-(5-bromo-2-phenylbenzofuran-7-yl)-2–(4-chlorophenyl)quinazolin-4-amine] showed a CC50 [2, 11] of 73.9 ± 0.02 µM, a CC50 [3] of 15.4 ± 0.45 µM and a CC50 [4] of 48 ± 0.1 µM. The CC50 [5] was 75 ± 0.02 µM.

With `Fc1cccc(-c2cc3cc(Br)cc(Nc4nc(-c5ccc(Cl)cc5)nc5ccc(Br)cc45)c3o2)c1` [Compound 10g, 6-Bromo-N-(5-bromo-2–(3-fluorophenyl)benzofuran-7-yl)-2–(4-chlorophenyl)quinazolin-4-amine] the CC50 [2, 11] was 79.1 ± 0.01 µM, the CC50 [3] was 53.5 ± 4.46 µM and the IC50 [6, 12] was 0.1329 ± 0.00055 µM. It also gave a CC50 [4] of 78.5 ± 0.15 µM and a CC50 [5] of 94.4 ± 0.02 µM.

`Fc1ccc(-c2cc3cc(Br)cc(Nc4nc(-c5ccc(Cl)cc5)nc5ccc(Br)cc45)c3o2)cc1` [Compound 10h, 6-Bromo-N-(5-bromo-2–(4-fluorophenyl)benzofuran-7-yl)-2–(4-chlorophenyl)quinazolin-4-amine] showed a CC50 [2, 11] of over 100 µM, a CC50 [3] of 28.6 ± 1.12 µM and an IC50 [6, 12] of 0.1257 ± 0.00052 µM. It also gave a CC50 [4] of 74.1 ± 0.21 µM and a CC50 [5] of 49.1 ± 0.01 µM.

With `Fc1ccc(-c2nc(Nc3cc(Br)cc4cc(-c5cccc(Cl)c5)oc34)c3cc(Br)ccc3n2)cc1` [Compound 10d, 6-Bromo-N-(5-bromo-2–(3-chlorophenyl)benzofuran-7-yl)-2–(4-fluorophenyl)quinazolin-4-amine] the induction of apoptosis [7] was “induced apoptosis”, the CC50 [2, 11] was 9 ± 0.01 µM and the CC50 [3] was 22.1 ± 1.1 µM. The caspase-3 activation [8] was “induce apoptosis through activation of caspase-3”, the IC50 [6, 12] was 0.0293 ± 2e-05 µM and the CC50 [4] was 65.1 ± 0.12 µM. The CC50 [5] was 47.7 ± 0.01 µM.

`Fc1ccc(-c2nc(Nc3cc(Br)cc4cc(-c5ccc(OC(F)(F)F)cc5)oc34)c3cc(Br)ccc3n2)cc1` [Compound 10e, 6-Bromo-N-(5-bromo-2–(4-(trifluoromethoxy)phenyl)benzofuran-7-yl)-2–(4-fluorophenyl) quinazolin-4-amine] was tested, and the CC50 [2, 11] was over 100 µM, the CC50 [3] was 23.4 ± 0.49 µM and the IC50 [6, 12] was 0.0311 ± 0.00012 µM. For the same molecule, the CC50 [4] was 97.6 ± 0.07 µM and the CC50 [5] was 65.2 ± 0.1 µM.

`Fc1ccc(-c2nc(Nc3cc(Br)cc4cc(-c5cccc(F)c5)oc34)c3cc(Br)ccc3n2)cc1` [Compound 10b, 6-Bromo-N-(5-bromo-2–(3-fluorophenyl)benzofuran-7-yl)-2–(4-fluorophenyl)quinazolin-4-amine] was tested, and the CC50 [2, 11] was 90.1 ± 0.02 µM, the CC50 [3] was 47 ± 0.38 µM and the IC50 [6, 12] was 0.1225 ± 0.0005 µM. For the same molecule, the CC50 [4] was 54.3 ± 0.19 µM and the CC50 [5] was 83.9 ± 0.07 µM.

`Fc1ccc(-c2nc(Nc3cc(Br)cc4cc(-c5ccccc5)oc34)c3cc(Br)ccc3n2)cc1` [Compound 10a, 6-Bromo-N-(5-bromo-2-phenylbenzofuran-7-yl)-2–(4-fluorophenyl)quinazolin-4-amine] was tested, and the CC50 [2, 11] was 81 ± 0.03 µM, the CC50 [3] was 17.6 ± 0.39 µM and the IC50 [6] was 0.1113 ± 0.00042 µM. It also gave a CC50 [4] of 64.7 ± 0.11 µM and a CC50 [5] of 96.3 ± 0.1 µM.

`Clc1ccc(-c2nc(Nc3cc(Br)cc4cc(-c5cccc(Cl)c5)oc34)c3cc(Br)ccc3n2)cc1` [Compound 10i, 6-Bromo-N-(5-bromo-2–(3-chlorophenyl)benzofuran-7-yl)-2–(4-chlorophenyl)quinazolin-4-amine] was tested, and the CC50 [2, 11] was 68.2 ± 0.02 µM, the CC50 [3] was 75.1 ± 5.25 µM and the IC50 [6, 12] was 0.0902 ± 0.00034 µM. It also gave a CC50 [4] of 86.6 ± 0.16 µM and a CC50 [5] of 33.5 ± 0.1 µM.

With `FC(F)(F)Oc1ccc(-c2cc3cc(Br)cc(Nc4nc(-c5ccc(Cl)cc5)nc5ccc(Br)cc45)c3o2)cc1` [Compound 10j, 6-Bromo-N-(5-bromo-2–(4-(trifluoromethoxy)phenyl)benzofuran-7-yl)-2–(4-chlorophenyl) quinazoline-4-amine] the induction of apoptosis [9] was “induced apoptosis”, the CC50 [2, 11] was over 100 µM and the CC50 [3] was 28.1 ± 0.79 µM. The IC50 [6, 12] was 0.0615 ± 1e-05 µM, the caspase-3 activation [10] was “induce apoptosis through activation of caspase-3” and the CC50 [4] was 47.4 ± 0.07 µM. The CC50 [5] was 18.4 ± 0.07 µM.

With `Fc1ccc(-c2nc(Nc3cc(Br)cc4cc(-c5ccc(F)cc5)oc34)c3cc(Br)ccc3n2)cc1` [Compound 10c, 6-Bromo-N-(5-bromo-2–(4-fluorophenyl)benzofuran-7-yl)-2–(4-fluorophenyl)quinazolin-4-amine] the CC50 [2, 11] was over 100 µM, the CC50 [3] was 11.4 ± 0.56 µM and the IC50 [6] was 0.0522 ± 0.00018 µM. It also gave a CC50 [4] of 52.6 ± 0.2 µM and a CC50 [5] of 98.8 ± 0.02 µM.
